# ChEMBL document CHEMBL5291721, “A preclinical secondary pharmacology resource illuminates target-adverse drug reaction associations of marketed drugs” (Nat Commun, 2023)
# Legend:
# [1] = target: T1, Alpha-2A adrenergic receptor (Homo sapiens, UniProt P08913); format: functional, cell-based
# T1 sequence (P08913 whole entry): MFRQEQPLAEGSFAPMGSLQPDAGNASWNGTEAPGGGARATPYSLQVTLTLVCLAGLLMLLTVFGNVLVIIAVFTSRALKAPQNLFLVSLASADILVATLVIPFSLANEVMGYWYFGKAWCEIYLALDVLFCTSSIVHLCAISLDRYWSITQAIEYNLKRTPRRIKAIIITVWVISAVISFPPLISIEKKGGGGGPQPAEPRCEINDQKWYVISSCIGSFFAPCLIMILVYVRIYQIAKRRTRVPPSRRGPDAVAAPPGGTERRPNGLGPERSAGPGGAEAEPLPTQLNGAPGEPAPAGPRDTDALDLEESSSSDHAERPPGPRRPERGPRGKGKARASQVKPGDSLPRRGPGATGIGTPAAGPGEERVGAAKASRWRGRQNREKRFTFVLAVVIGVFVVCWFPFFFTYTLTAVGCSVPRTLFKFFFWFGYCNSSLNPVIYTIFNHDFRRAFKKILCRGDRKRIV
# [2] = target: T2, Type-1 angiotensin II receptor (Homo sapiens, UniProt P30556)
# T2 sequence (P30556 whole entry): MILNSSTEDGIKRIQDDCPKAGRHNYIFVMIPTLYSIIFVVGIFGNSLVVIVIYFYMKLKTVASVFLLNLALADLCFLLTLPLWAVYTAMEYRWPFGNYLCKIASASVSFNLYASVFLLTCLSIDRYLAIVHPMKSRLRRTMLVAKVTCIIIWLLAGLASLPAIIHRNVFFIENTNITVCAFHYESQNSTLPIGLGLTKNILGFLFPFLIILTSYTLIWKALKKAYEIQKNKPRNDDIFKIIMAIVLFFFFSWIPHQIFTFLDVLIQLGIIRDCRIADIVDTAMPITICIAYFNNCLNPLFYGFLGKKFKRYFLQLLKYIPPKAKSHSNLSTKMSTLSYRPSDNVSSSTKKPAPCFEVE
# [3] = target: T3, Muscarinic acetylcholine receptor M2 (Homo sapiens, UniProt P08172); format: functional, cell-based
# T3 sequence (P08172 whole entry): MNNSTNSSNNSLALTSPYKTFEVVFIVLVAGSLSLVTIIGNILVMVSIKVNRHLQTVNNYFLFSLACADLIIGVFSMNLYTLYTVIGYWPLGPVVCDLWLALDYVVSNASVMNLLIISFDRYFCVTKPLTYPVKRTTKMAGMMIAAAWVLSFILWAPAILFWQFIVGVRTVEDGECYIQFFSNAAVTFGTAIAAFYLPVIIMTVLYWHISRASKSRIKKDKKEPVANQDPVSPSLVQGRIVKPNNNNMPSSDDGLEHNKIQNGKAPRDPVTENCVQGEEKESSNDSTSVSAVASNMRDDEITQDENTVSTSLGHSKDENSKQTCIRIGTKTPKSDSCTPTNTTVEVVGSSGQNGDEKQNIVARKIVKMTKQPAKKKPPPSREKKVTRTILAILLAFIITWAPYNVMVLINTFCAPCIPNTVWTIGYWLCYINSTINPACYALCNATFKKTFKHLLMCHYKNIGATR
# [4] = target: Muscarinic acetylcholine receptor M3 (Homo sapiens, UniProt P20309)
# Sequence of Muscarinic acetylcholine receptor M3 (P20309 whole entry): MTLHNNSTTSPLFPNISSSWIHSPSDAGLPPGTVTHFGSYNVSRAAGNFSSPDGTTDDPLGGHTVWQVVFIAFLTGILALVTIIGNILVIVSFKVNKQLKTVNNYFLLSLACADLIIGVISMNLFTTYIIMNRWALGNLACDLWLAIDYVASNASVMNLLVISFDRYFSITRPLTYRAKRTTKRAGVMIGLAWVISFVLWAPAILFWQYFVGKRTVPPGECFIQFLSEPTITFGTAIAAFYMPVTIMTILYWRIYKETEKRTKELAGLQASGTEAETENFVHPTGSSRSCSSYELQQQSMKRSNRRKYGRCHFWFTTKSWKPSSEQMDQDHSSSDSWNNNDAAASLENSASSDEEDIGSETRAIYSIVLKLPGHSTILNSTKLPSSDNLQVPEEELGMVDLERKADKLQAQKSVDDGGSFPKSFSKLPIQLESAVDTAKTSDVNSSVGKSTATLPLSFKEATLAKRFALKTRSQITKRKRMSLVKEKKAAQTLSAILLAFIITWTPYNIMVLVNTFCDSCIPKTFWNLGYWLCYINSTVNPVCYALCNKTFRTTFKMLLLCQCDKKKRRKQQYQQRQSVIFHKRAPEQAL
# D(1A) dopamine receptor = D(1A) dopamine receptor (Homo sapiens, UniProt P21728); format: functional, cell-based
# Sequence of D(1A) dopamine receptor (P21728 whole entry): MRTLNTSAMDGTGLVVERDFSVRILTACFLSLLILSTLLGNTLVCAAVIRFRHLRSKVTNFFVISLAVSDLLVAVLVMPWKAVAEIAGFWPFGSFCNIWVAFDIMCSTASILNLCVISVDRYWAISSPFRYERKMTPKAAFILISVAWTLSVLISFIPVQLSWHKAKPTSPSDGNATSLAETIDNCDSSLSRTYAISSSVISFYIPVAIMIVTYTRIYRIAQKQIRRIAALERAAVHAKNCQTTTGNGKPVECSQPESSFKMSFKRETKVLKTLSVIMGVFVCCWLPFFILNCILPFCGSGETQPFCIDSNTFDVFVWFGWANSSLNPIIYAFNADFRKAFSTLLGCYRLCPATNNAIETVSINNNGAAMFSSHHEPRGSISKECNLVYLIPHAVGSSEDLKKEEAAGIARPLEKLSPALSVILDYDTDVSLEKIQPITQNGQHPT
# [5] = target: Glutamate receptor ionotropic, NMDA 1 (Rattus norvegicus, UniProt P35439)
# [6] = target: 5-hydroxytryptamine receptor 2B (Homo sapiens, UniProt P41595); format: functional, cell-based
# Sequence of 5-hydroxytryptamine receptor 2B (P41595 whole entry): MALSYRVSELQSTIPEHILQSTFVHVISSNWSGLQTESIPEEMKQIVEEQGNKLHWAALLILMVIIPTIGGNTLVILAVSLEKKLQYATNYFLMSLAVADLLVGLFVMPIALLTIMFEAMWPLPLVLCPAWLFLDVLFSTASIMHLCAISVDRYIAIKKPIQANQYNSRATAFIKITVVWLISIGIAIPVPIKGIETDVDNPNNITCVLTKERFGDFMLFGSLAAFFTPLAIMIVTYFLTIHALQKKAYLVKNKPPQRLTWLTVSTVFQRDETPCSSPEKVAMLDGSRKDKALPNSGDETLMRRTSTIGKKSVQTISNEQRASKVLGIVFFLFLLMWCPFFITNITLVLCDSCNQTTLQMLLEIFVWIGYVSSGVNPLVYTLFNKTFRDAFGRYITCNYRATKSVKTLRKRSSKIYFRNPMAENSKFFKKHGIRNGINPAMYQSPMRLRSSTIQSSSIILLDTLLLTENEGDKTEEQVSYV
# [7] = target: T4, 5-hydroxytryptamine receptor 2C (Homo sapiens, UniProt P28335)
# T4 sequence (P28335 whole entry): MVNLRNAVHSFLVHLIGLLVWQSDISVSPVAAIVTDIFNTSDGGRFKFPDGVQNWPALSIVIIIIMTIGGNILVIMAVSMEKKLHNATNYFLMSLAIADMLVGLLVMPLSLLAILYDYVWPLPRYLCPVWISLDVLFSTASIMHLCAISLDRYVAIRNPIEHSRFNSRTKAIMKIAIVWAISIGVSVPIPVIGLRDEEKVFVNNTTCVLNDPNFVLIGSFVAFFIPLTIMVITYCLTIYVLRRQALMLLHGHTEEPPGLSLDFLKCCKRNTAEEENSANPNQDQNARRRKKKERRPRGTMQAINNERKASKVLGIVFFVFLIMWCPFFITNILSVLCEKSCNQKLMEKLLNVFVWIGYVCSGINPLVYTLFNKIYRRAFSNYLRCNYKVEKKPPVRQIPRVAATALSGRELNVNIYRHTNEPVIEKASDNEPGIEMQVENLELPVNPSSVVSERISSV
# Melanocortin receptor 3 = Melanocortin receptor 3 (Homo sapiens, UniProt P41968)
# Sequence of Melanocortin receptor 3 (P41968 whole entry): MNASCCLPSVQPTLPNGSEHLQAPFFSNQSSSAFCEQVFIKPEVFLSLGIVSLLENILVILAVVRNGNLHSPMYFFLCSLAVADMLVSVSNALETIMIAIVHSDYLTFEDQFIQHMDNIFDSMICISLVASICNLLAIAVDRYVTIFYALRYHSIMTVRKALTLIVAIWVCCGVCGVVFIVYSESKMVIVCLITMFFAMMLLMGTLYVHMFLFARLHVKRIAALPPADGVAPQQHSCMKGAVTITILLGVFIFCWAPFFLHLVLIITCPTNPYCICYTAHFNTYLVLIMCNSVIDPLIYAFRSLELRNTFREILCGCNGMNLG
# [8] = target: Delta-type opioid receptor (Homo sapiens, UniProt P41143)
# Sequence of Delta-type opioid receptor (P41143 whole entry): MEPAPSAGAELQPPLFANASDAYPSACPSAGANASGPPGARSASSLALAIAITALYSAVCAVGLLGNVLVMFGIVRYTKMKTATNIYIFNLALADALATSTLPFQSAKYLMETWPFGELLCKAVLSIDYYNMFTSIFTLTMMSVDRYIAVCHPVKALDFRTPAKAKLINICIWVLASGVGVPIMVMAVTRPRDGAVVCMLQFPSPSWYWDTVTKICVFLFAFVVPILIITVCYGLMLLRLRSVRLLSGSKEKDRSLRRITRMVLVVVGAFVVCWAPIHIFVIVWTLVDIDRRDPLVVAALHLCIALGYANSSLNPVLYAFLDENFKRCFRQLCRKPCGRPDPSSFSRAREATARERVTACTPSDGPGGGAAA
# Thromboxane A2 receptor = target: T5, Thromboxane A2 receptor (Homo sapiens, UniProt P21731)
# T5 sequence (P21731 whole entry): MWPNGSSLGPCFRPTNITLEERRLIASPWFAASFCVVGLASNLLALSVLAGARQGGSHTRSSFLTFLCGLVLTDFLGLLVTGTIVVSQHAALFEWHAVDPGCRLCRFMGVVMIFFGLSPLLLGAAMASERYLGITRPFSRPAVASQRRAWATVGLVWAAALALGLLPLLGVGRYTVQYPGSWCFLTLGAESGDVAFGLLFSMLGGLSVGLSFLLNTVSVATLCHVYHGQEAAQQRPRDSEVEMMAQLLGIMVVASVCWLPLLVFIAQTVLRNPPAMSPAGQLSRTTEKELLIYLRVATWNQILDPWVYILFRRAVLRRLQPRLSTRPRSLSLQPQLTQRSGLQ
# Endothelin-1 receptor = target: T6, Endothelin-1 receptor (Homo sapiens, UniProt P25101)
# T6 sequence (P25101 whole entry): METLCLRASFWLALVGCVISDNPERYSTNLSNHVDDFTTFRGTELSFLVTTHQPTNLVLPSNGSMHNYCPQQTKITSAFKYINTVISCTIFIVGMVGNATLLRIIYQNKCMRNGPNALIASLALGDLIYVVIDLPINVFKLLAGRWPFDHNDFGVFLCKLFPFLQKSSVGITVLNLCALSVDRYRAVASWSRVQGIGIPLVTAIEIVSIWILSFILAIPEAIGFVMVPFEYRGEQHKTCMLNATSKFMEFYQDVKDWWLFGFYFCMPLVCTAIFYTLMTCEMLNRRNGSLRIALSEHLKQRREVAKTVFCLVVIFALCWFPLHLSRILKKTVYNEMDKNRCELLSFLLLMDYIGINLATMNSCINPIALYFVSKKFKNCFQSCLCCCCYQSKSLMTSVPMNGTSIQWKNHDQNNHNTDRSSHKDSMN
# Further: assay procedure not described here.
SMILES,AC50 [1],AC50 [2],AC50 [3],AC50 [4],AC50 (D(1A) dopamine receptor),AC50 [5],AC50 [6],AC50 [7],AC50 (Melanocortin receptor 3),AC50 [8],AC50 (Thromboxane A2 receptor),AC50 (Endothelin-1 receptor)
CC(=O)c1ccc(S(=O)(=O)NC(=O)NC2CCCCC2)cc1 [ACETOHEXAMIDE],> 30 µM,> 10 µM,> 10 µM,> 30 µM,> 10 µM,> 10 µM,> 30 µM,> 30 µM,> 10 µM,> 30 µM,> 10 µM,–
COc1cc(C)c(/C=C/C(C)=C/C=C/C(C)=C/C(=O)O)c(C)c1C [ACITRETIN],> 10 µM,> 10 µM,> 10 µM,> 30 µM,> 10 µM,> 10 µM,> 10 µM,> 30 µM,> 10 µM,> 30 µM,> 10 µM,–
O=C(O)c1ccc(NC(=O)[C@H](Cc2ccc(O)cc2)NC(=O)c2ccccc2)cc1 [BENTIROMIDE],> 10 µM,> 10 µM,> 10 µM,> 30 µM,> 10 µM,> 10 µM,> 10 µM,> 30 µM,> 10 µM,> 30 µM,> 10 µM,–
NS(=O)(=O)c1cc2c(cc1Cl)N=C(CSCc1ccccc1)NS2(=O)=O [BENZTHIAZIDE],1.7 µM,> 10 µM,> 10 µM,> 30 µM,> 10 µM,> 10 µM,> 10 µM,> 30 µM,> 10 µM,> 30 µM,> 10 µM,–
CC(CN(C)C)C(C)(O)Cc1ccc(Cl)cc1 (configuration not stated) [CLOBUTINOL],> 10 µM,> 30 µM,> 10 µM,> 30 µM,> 10 µM,> 10 µM,> 10 µM,> 30 µM,> 30 µM,> 30 µM,> 30 µM,–
CC(C)[C@@H](C)/C=C/[C@@H](C)[C@H]1CC[C@H]2/C(=C/C=C3\C[C@@H](O)CC[C@@H]3C)CCC[C@]12C [DIHYDROTACHYSTEROL],> 10 µM,> 10 µM,> 10 µM,> 30 µM,> 10 µM,> 10 µM,> 10 µM,> 30 µM,> 10 µM,> 30 µM,> 10 µM,–
NNC(=O)c1ccncc1 [ISONIAZID],> 30 µM,> 30 µM,> 30 µM,–,> 30 µM,> 30 µM,> 30 µM,> 30 µM,> 30 µM,> 30 µM,> 30 µM,> 30 µM
O=C1Nc2ccc(Cl)cc2C(c2ccccc2Cl)=NC1O (configuration not stated) [LORAZEPAM],> 10 µM,> 30 µM,> 10 µM,–,> 30 µM,> 10 µM,> 10 µM,> 30 µM,> 30 µM,> 30 µM,> 30 µM,> 30 µM
CC(=O)[C@H]1CC[C@H]2[C@@H]3C[C@H](C)C4=CC(=O)CC[C@]4(C)[C@H]3[C@@H](O)C[C@]12C [MEDRYSONE],> 10 µM,> 10 µM,> 10 µM,> 30 µM,> 10 µM,> 10 µM,> 10 µM,> 30 µM,> 10 µM,> 30 µM,> 10 µM,–
CCCC(C)(COC(N)=O)COC(N)=O [MEPROBAMATE],> 10 µM,> 10 µM,> 10 µM,> 30 µM,> 10 µM,> 10 µM,> 10 µM,> 30 µM,> 10 µM,> 30 µM,> 10 µM,–
Cc1ccnc2c1NC(=O)c1cccnc1N2C1CC1 [NEVIRAPINE],> 10 µM,> 30 µM,> 10 µM,–,> 10 µM,> 10 µM,> 10 µM,> 10 µM,> 30 µM,> 10 µM,> 30 µM,> 30 µM
O=C(c1cc(Cc2n[nH]c(=O)c3ccccc23)ccc1F)N1CCN(C(=O)C2CC2)CC1 [OLAPARIB],> 10 µM,> 30 µM,> 10 µM,> 30 µM,> 10 µM,> 10 µM,> 10 µM,> 30 µM,> 30 µM,> 30 µM,> 30 µM,–
CO[C@H]1C[C@H](O[C@H]2CC[C@@]3(C)[C@H](CC[C@@H]4[C@@H]3CC[C@]3(C)[C@@H](C5=CC(=O)OC5)[C@@H](OC(C)=O)C[C@]43O)C2)O[C@@H](C)[C@@H]1O [OLEANDRIN],> 30 µM,–,> 30 µM,> 30 µM,> 30 µM,> 30 µM,> 30 µM,> 30 µM,–,> 30 µM,–,–
C[C@]12C/C(=C/O)C(=O)C[C@@H]1CC[C@@H]1[C@@H]2CC[C@@]2(C)[C@H]1CC[C@]2(C)O [OXYMETHOLONE],> 30 µM,15 µM,> 30 µM,–,> 30 µM,> 30 µM,> 30 µM,> 30 µM,> 30 µM,> 30 µM,> 30 µM,> 30 µM
COc1cc(C(=O)NC2CCCNC2)cc(OC)c1OC (configuration not stated) [TROXIPIDE],> 30 µM,> 30 µM,> 30 µM,–,> 30 µM,> 30 µM,> 30 µM,> 30 µM,> 30 µM,> 30 µM,> 30 µM,> 30 µM
